Test: Kinetic solubility of six ASDs in biorelevant media (SGF, FaSSIF, FeSSIF) at 37° C., 1 and 2 h
Type: physicochemical
Description: The three biorelevant media were: SGF, FaSSIF, and FeSSIF. These were prepared using procedure and FaSSIF/FeSSIF/FaSSGF Powder obtained from Biorelevant.com (https://biorelevant.com/learning_center/how-make-fassif/). A suspension of each ASD was prepared in SGF, FaSSIF, and FeSSIF and each was allowed to stir at 400 rpm. An aliquot of the supernatant was taken out at 1 and 2 hours, syringe filtered using a cellulose acetate filter ([…] pore size) and analyzed by HPLC. The solubilities of each ASD in SGF, FaSSIF, and FeSSIF are presented in Table 2A-8, Table 2A-9, and Table 2A-10, respectively. […] In addition, at 2 hours the remaining solids were analyzed by XRPD. […] These peaks correspond to residual FeSSIF buffer crystallizing on the ASD solids upon drying. (See Tables 2A-8, -9, and -10).

1 hr solubility in FeSSIF (n = 2) (37° C., 400 rpm): 5 µg/mL | 2 hr solubility in FeSSIF (n = 2) (37° C., 400 rpm): 6 µg/mL | XRPD after FeSSIF (solids remaining at 2 hours): Form I + one peak ~9°
SMILES: Cn1cc(C2=C(c3coc4ccc(F)cc34)C(=O)NC2=O)c2cc3c(cc21)OCO3 [NA]
